Laboratory results as given in article PMC10709440, “High-throughput ligand profile characterization in novel cell lines expressing seven heterologous insect olfactory receptors for the detection of volatile plant biomarkers” (Scientific Reports, 2023).
Read-outs that look alike come from different tables or passages of the source.

Legend:
[1] = biological target: T1, Drosophila OR10a (Drosophila melanogaster, UniProt Q9VYZ1); assay: Calcium ion fluorescence (GCaMP6) assay, OR10a stable HEK293 cell line; type: cell-based; details: for activation at 1 µM / activation at 10 µM / activation at 100 µM: 50 μM VUAA1 = 1, responses not exceeding 0.05 considered 0; for OR10a response (VUAA1-normalized) at 1 μM / OR10a response (VUAA1-normalized) at 10 μM / OR10a response (VUAA1-normalized) at 100 μM: OR10a cell line; for OR10a response (VUAA1-normalized) at 1 μM: VOC concentration 1 μM; for OR10a response (VUAA1-normalized) at 10 μM: VOC concentration 10 μM; for OR10a response (VUAA1-normalized) at 100 μM: VOC concentration 100 μM; for DF norm AVERAGE OR10a: threshold 0.05, below shown as 0
T1 construct: expressed in transfected cells
T1 sequence (Q9VYZ1 1-406): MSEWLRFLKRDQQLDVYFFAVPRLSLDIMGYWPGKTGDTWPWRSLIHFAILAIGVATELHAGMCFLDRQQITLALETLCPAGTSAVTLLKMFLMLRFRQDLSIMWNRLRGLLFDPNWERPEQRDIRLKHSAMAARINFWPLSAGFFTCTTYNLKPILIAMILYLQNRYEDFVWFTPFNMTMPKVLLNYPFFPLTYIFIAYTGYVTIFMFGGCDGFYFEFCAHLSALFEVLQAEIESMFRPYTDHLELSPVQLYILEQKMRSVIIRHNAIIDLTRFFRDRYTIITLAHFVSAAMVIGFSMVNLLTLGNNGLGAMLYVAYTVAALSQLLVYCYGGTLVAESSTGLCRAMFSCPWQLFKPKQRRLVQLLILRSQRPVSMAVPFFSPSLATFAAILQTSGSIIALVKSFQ
T1 sequence (Q9VNB5 1-486 partner): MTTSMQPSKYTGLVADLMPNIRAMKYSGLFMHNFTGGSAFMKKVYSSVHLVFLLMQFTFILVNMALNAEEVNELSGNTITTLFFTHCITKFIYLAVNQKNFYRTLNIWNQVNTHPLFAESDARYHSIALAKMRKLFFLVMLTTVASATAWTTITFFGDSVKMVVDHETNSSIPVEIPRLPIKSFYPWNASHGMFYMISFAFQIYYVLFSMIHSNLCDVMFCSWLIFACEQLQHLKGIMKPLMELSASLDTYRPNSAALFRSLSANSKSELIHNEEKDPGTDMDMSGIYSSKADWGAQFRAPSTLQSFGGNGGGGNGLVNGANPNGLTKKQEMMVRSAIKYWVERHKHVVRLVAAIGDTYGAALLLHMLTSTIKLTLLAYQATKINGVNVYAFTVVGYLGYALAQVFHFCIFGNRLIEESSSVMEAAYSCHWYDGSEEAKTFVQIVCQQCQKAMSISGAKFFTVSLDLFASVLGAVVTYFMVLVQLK
Outline: (§1)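 HEK293 lines stably expressing each Drosophila OR with GCaMP6, doxycycline-induced (1 μg/mL) 48 or 72 h. Fluorescence recorded 5 s baseline then 30 s after VOC injection at pH 7.3; ΔF=(FMAX−F0)/F0, normalized to 50 µM VUAA1 response per line, triplicate wells averaged; concentration series 0.01–100 μM.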

[2] = biological target: T2, Drosophila OR85b (Drosophila melanogaster, UniProt Q9VHQ7); assay: Calcium ion fluorescence (GCaMP6) assay, OR85b stable HEK293 cell line; type: cell-based; details: for OR85b response (VUAA1-normalized) at 1 μM / OR85b response (VUAA1-normalized) at 10 μM / OR85b response (VUAA1-normalized) at 100 μM / Average response: OR85b cell line; for OR85b response (VUAA1-normalized) at 1 μM: VOC concentration 1 μM; for OR85b response (VUAA1-normalized) at 10 μM: VOC concentration 10 μM; for OR85b response (VUAA1-normalized) at 100 μM: VOC concentration 100 μM; for Average response: VUAA1-normalized response, mean of biological replicates; for DF norm AVERAGE OR85b: threshold 0.05, below shown as 0
T2 construct: expressed in transfected cells
T2 sequence (Q9VHQ7 1-390): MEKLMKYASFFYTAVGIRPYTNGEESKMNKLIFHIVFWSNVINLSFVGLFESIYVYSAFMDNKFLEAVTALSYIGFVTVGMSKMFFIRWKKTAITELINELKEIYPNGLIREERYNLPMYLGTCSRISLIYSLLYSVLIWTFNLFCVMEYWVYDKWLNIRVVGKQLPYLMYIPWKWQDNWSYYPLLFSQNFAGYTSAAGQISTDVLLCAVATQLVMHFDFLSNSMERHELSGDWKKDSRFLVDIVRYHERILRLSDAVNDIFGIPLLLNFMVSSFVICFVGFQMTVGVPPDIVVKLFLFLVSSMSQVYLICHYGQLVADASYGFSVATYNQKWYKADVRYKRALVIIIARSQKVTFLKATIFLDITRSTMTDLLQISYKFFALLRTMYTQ
T2 sequence (Q9VNB5 1-486 partner): T1 sequence (Q9VNB5 1-486 partner)
Outline: as §1

[3] = HEK293, 1 μM VOC, read-out: OR10a Average response (VUAA1-normalized)
[4] = HEK293, 10 μM VOC, read-out: OR10a Average response (VUAA1-normalized)
[5] = HEK293, 100 μM VOC, read-out: OR10a Average response (VUAA1-normalized)
[6] = ligand concentration 1 (unit not given)
[7] = ligand concentration 10 (unit not given)
[8] = ligand concentration 100 (unit not given)
[9] = HEK293, read-out: OR85b Average response (VUAA1-normalized)

## CCCCCOC(C)=O [pentyl acetate]
[1]; [3]
  activation at 1 µM: 11%
[1]; [4]
  activation at 10 µM: 8%
[1]; [5]
  activation at 100 µM: 30%
[1]
  OR10a response (VUAA1-normalized) at 1 μM: 0.11
  OR10a response (VUAA1-normalized) at 10 μM: 0.08
  OR10a response (VUAA1-normalized) at 100 μM: 0.30
[1]; [6]
  DF norm AVERAGE OR10a: 0.109
[1]; [7]
  DF norm AVERAGE OR10a: 0.07718
[1]; [8]
  DF norm AVERAGE OR10a: 0.3011
[2]; [9]
  activation at 1 µM: 2%
  activation at 10 µM: 4%
  activation at 100 µM: 14%
[2]
  OR85b response (VUAA1-normalized) at 1 μM: 0.00
  OR85b response (VUAA1-normalized) at 10 μM: 0.00
  OR85b response (VUAA1-normalized) at 100 μM: 0.14
[2]; cc. 1 µM
  Average response: 0.0185
[2]; cc. 10 µM
  Average response: 0.04
[2]; cc. 100 µM
  Average response: 0.14
[2]; [6]
  DF norm AVERAGE OR85b: 0
[2]; [7]
  DF norm AVERAGE OR85b: 0
[2]; [8]
  DF norm AVERAGE OR85b: 0.1368

## OCCc1ccccc1 [phenethyl alcohol]
[1]; [3]
  activation at 1 µM: 3%
[1]; [4]
  activation at 10 µM: 6%
[1]; [5]
  activation at 100 µM: 3%
[1]
  OR10a response (VUAA1-normalized) at 1 μM: 0.00
  OR10a response (VUAA1-normalized) at 10 μM: 0.06
  OR10a response (VUAA1-normalized) at 100 μM: 0.00
[1]; [6]
  DF norm AVERAGE OR10a: 0
[1]; [7]
  DF norm AVERAGE OR10a: 0.05732
[1]; [8]
  DF norm AVERAGE OR10a: 0
[2]
  OR85b response (VUAA1-normalized) at 1 μM: 0.10
  OR85b response (VUAA1-normalized) at 10 μM: 0.0758
  OR85b response (VUAA1-normalized) at 100 μM: 0.00
[2]; cc. 1 µM
  Average response: 0.10
[2]; cc. 10 µM
  Average response: 0.0758
[2]; cc. 100 µM
  Average response: 0.04
[2]; [6]
  DF norm AVERAGE OR85b: 0.09884
[2]; [7]
  DF norm AVERAGE OR85b: 0.07579
[2]; [8]
  DF norm AVERAGE OR85b: 0

## CCCOC(C)=O [propyl acetate]
[1]; [3]
  activation at 1 µM: 0%
[1]; [4]
  activation at 10 µM: 9%
[1]; [5]
  activation at 100 µM: 0%
[1]
  OR10a response (VUAA1-normalized) at 1 μM: 0.00
  OR10a response (VUAA1-normalized) at 10 μM: 0.09
  OR10a response (VUAA1-normalized) at 100 μM: 0.00
[1]; [6]
  DF norm AVERAGE OR10a: 0
[1]; [7]
  DF norm AVERAGE OR10a: 0.08914
[1]; [8]
  DF norm AVERAGE OR10a: 0
[2]
  OR85b response (VUAA1-normalized) at 1 μM: 0.0538
  OR85b response (VUAA1-normalized) at 10 μM: 0.00
  OR85b response (VUAA1-normalized) at 100 μM: 0.00
[2]; cc. 1 µM
  Average response: 0.0538
[2]; cc. 10 µM
  Average response: 0.0361
[2]; cc. 100 µM
  Average response: 0.00
[2]; [6]
  DF norm AVERAGE OR85b: 0.05375
[2]; [7]
  DF norm AVERAGE OR85b: 0
[2]; [8]
  DF norm AVERAGE OR85b: 0

## C=C1CCC2(C(C)C)CC12 (stereo not drawn) [sabinene]
[1]; HEK293, read-out: OR10a Average response (VUAA1-normalized), 1 μM VOC
  activation at 1 µM: 0%
[1]; HEK293, read-out: OR10a Average response (VUAA1-normalized), 10 μM VOC
  activation at 10 µM: 0%
[1]; HEK293, read-out: OR10a Average response (VUAA1-normalized), 100 μM VOC
  activation at 100 µM: 3.23%
[1]
  OR10a response (VUAA1-normalized) at 1 μM: 0.00
  OR10a response (VUAA1-normalized) at 10 μM: 0.00
  OR10a response (VUAA1-normalized) at 100 μM: 0.00
[1]; [6]
  DF norm AVERAGE OR10a: 0
[1]; [7]
  DF norm AVERAGE OR10a: 0
[1]; [8]
  DF norm AVERAGE OR10a: 0
[2]
  OR85b response (VUAA1-normalized) at 1 μM: 0.0647
  OR85b response (VUAA1-normalized) at 10 μM: 0.00
  OR85b response (VUAA1-normalized) at 100 μM: 0.09
[2]; cc. 1 µM
  Average response: 0.0647
[2]; cc. 10 µM
  Average response: 0.0439
[2]; cc. 100 µM
  Average response: 0.09
[2]; [6]
  DF norm AVERAGE OR85b: 0.06468
[2]; [7]
  DF norm AVERAGE OR85b: 0
[2]; [8]
  DF norm AVERAGE OR85b: 0.08701
